In paper PMC3851289 (Molecular cell, 2013) one finds IC50 data, which are given here for 1 substance.

The experiment addresses VprBP (Homo sapiens, UniProt Q9Y4B6). The experiment can be described thus: in vitro kinase assay with recombinant VprBP and H2A. In kind it is biochemical.

Chain of VprBP (Q9Y4B6 whole entry): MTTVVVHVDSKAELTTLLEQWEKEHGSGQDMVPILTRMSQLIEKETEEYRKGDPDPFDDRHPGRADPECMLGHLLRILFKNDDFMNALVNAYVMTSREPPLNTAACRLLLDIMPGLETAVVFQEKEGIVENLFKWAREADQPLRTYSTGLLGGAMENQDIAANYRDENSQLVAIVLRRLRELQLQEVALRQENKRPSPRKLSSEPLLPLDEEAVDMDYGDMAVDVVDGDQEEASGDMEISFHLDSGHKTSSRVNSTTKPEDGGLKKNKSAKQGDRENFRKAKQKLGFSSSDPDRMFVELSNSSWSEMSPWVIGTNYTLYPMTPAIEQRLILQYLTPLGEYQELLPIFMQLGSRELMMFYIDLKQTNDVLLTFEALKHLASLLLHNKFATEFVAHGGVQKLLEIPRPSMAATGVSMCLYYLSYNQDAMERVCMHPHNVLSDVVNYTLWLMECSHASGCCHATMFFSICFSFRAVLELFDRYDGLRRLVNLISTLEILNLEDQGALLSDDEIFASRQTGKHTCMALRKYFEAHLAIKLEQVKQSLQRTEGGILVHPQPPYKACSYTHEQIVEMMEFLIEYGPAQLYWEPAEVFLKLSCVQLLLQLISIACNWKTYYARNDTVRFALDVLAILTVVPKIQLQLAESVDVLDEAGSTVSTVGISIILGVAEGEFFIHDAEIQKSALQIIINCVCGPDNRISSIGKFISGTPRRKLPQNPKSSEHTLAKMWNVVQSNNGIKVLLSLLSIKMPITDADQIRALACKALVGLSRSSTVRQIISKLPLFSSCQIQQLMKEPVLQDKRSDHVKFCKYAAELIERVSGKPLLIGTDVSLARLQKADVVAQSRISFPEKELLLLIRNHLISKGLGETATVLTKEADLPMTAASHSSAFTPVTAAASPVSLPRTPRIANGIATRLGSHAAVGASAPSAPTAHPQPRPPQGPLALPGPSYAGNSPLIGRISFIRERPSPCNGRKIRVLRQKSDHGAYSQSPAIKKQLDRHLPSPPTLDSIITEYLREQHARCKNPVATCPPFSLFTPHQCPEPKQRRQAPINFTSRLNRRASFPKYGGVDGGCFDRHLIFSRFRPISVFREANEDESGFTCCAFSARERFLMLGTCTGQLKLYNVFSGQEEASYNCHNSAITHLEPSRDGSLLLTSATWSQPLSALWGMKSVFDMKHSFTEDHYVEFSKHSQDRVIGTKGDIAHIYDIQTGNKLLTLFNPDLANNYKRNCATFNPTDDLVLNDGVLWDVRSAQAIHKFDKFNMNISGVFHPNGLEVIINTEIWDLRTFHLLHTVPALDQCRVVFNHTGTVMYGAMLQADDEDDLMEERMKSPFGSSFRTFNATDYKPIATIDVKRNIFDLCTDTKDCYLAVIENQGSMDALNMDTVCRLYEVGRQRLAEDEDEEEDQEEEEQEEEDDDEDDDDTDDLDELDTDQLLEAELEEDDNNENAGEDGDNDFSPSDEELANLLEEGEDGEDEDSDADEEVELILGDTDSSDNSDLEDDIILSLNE

Take B32B3: the IC50 (usually the concentration that gives 50% inhibition) stood at 600 nM.
